Square brackets hold non-standard residues; d marks the D form. Peptide text beside a SMILES is read from it. Orn = NCCC[C@H](N)C(=O)O; βAla = NCCC(=O)O
Tested on: BC-1 cells
Assay: MTT assay, deletion and mutant peptides
Format: cell-based, human
Conditions: BC-1, 64 μM
Source text: Fig. 2 Viral and cellular responses to K-Rta peptide; identification of VGN50. a Protein sequence alignment. Homologous protein sequences were searched for with BLAST and extracted from other gamma-herpesviral homologs. The consensus protein sequence is depicted at the bottom of table. b Peptide design. Deletion peptides were designed based on the consensus sequence in a. The TAT protein sequence was used as a cell-penetrating peptide (CPP) and placed downstream from the K-Rta protein sequence. (d-R) D amino acid arginine, (ORN) ornithine, (bAla) beta alanine. c Sub cellular peptide localization. Cy5-labeled peptide 1 was used to track subcellular localization. Nuclei were visualized by DAPI staining. The scale is indicated in the panel. d MTT assays with deletion and mutant peptides. Peptide listed in b were incubated with BC-1 cells and MTT conversion was measured 48 h after incubation. The OD of mock-treated samples were set as 100%, and OD from detergent-treated cells were set as 0%. The amount of each peptide used for incubation is depicted along the x-axis. Mean percentage viability ±SD were calculated for each treatment group (n = 3 samples). Peptide 1 was renamed as VGN50. e Flow cytometry analyses of cell proliferation and apoptosis induction. Cells were incubated with VGN50 or mutant peptide (three alanine substitutions) for 24 h followed by measurements of percentage cell proliferation (Ki67 staining) and apoptosis induction (Annexin V staining). Standard deviation bars are included. (n = 3) Two-way Anova, followed by Sidak’s multiple comparisons test. f The effect of VGN50 on various cancer cell types. MTT assays were performed with the indicated cell lines treated with various VGN50 concentrations. The OD of mock-treated samples were set as 100%, and OD from detergent-treated cells were set as 0%. Mean percentage viability ±SD was calculated for each treatment (n = 3 samples/treatment). g Viability assay with flow cytometry. Cell viability was measured in triplicate with live/dead staining and the cell killing effects on cancer cells was compared with normal peripheral blood mononuclear cells (PBMC) from three healthy donors. Results are presented as mean percentage viability ±SD (n = 3 samples/group). f, g Ordinary one-way Anova, followed by Tukey’s multiple comparisons test. […]
Leukoreduction system chambers (LRS) from healthy donors were purchased from Vitalant. […] Cell death, apoptosis, and proliferation were analyzed by flow cytometry (BD Acuri) after intracellular staining with anti-humanKi67-Alexa488 (Biolegend, 1:100) along with the isotype control antibody, annexin-V-FITC with 7-AAD staining (Biolegend) according to the manufacture’s protocol, Live/dead Fixable Red Dead Cell staining kit (Invitrogen) according to the manufacture’s protocol, or MTT assay. […]

With CC(C)C[C@H](NC(=O)CCNC(=O)[C@H](CCCNC(=N)N)NC(=O)[C@H](CCCNC(=N)N)NC(=O)[C@H](CCCNC(=N)N)NC(=O)[C@H](CCCN)NC(=O)[C@H](CCCNC(=N)N)NC(=O)[C@H](CCCNC(=N)N)NC(=O)[C@H](CCCCN)NC(=O)[C@H](CCCCN)NC(=O)[C@H](N)CCCNC(=N)N)C(=O)N[C@@H](CO)C(=O)N[C@@H](CO)C(=O)N[C@@H](C)C(=O)N[C@@H](C)C(=O)N[C@@H](C)C(=O)NCC(=O)N[C@@H](CC(C)C)C(=O)N[C@@H](Cc1ccc(O)cc1)C(=O)N[C@@H](CCC(N)=O)C(=O)N[C@@H](CC(C)C)C(=O)N[C@@H](CC(=O)O)C(=O)N[C@H](C(=O)O)[C@@H](C)O [Mt-P] (H-[dR]KKRR[Orn]RRR[βAla]LSSAAAGLYQLDT-OH; N-terminus and C-terminus assumed) the “Reduction of cell viability (MTT) compared to untreated control” value was 20%.
